Counter-ions that a name gives are not always drawn.

Sequence of S. aureus GyrB ATPase (P0AES4 whole entry): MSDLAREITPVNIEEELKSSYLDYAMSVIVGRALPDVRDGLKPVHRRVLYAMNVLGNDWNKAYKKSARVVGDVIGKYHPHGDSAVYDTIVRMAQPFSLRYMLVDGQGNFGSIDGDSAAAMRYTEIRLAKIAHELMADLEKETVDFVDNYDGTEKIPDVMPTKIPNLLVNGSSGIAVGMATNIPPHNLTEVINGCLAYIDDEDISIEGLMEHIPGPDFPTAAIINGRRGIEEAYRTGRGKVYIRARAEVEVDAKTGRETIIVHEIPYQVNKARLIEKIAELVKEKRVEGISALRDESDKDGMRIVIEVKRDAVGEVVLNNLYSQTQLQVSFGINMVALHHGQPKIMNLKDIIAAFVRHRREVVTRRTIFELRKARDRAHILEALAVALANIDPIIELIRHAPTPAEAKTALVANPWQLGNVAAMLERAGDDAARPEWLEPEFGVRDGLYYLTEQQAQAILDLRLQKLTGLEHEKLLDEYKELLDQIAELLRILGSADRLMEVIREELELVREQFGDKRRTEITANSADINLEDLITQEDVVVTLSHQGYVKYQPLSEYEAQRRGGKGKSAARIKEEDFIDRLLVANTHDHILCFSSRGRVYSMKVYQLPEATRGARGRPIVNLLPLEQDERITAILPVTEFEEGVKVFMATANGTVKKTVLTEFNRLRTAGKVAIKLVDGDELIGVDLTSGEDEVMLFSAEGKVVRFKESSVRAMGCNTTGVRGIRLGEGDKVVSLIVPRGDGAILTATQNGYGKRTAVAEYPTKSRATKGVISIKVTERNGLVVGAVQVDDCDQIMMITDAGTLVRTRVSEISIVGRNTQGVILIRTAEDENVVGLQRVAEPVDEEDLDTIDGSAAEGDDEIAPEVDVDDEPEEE
Sequence of S. aureus GyrB ATPase (P0A0K8 whole entry): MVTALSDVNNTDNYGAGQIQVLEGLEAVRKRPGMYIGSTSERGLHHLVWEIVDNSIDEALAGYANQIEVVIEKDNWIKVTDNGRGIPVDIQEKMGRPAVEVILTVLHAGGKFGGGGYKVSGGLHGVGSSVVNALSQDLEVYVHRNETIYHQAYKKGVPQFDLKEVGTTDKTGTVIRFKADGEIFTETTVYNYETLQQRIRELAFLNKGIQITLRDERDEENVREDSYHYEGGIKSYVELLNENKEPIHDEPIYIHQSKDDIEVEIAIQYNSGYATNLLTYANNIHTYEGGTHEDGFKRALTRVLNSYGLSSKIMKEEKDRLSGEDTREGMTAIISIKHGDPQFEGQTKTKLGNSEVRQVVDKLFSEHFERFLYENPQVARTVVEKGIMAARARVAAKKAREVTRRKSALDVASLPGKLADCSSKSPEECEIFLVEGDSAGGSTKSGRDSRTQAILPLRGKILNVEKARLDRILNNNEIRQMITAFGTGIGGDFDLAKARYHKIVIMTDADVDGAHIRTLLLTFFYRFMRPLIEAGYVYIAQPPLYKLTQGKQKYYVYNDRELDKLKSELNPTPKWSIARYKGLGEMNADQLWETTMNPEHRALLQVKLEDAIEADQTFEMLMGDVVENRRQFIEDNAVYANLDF

The target in this assay is S. aureus GyrB ATPase (Staphylococcus aureus, UniProt P0A0K8). In words: S. aureus GyrB ATPase inhibition (ammonium molybdate/malachite green phosphate detection). It counts as biochemical. The note with it: compound at 1 μM; inhibition of S. aureus GyrB ATPase; read-out: Percent Inhibition (1 μM). The protocol:
S. aureus GyrB ATPase Inhibition Activity: Compounds may be tested for inhibition of S. aureus GyrB ATPase activity using an ammonium molybdate/malachite green-based phosphate detection assay (Lanzetta, P. A., L. J. Alvarez, P. S. Reinach, and O. A. Candia, 1979, 100: 95-97). Assays can be performed in multiwell plates in 30 μl reactions containing: 50 mM Hepes buffer pH 7.5, 75 mM ammonium acetate, 8.0 mM magnesium chloride, 0.5 mM ethylenediaminetetraacetic acid, 5% glycerol, 1.0 mM 1,4-Dithio-DL-threitol, 200 nM bovine serum albumin, 1.0 μg/ml sheared salmon sperm DNA, 250 pM E. coli GyrA, 250 pM S. aureus GyrB, 250 μM ATP, and compound in dimethylsulfoxide. Reactions can be quenched with 30 μl of ammonium molybdate/malachite green detection reagent containing 1.2 mM malachite green hydrochloride, 8.5 mM ammonium molybdate tetrahydrate, and 1 M hydrochloric acid. Plates can be read in an absorbance plate reader at 650 nm and percent inhibition values can be calculated using dimethylsulfoxide (2%)-containing reactions as 0% inhibition and EDTA-containing ([…]) reactions as 100% inhibition controls. An IC50 measurement of compound potency for each compound can be determined from reactions performed in the presence of 10 different compound concentrations.
Take `CCNC(=O)Nc1cc(-c2nc(C(F)(F)F)cs2)c(-c2cc3c(=O)c(C(=O)O)cn(CCN4CCOCC4)c3cc2F)cn1` [Example 50, 6-(6-(3-ethylureido)-4-(4-(trifluoromethyl)thiazol-2-yl)pyridin-3-yl)-7-fluoro-1-(2-morpholinoethyl)-4-oxo-1,4-dihydroquinoline-3-carboxylic acid]: the inhibition at 1 µM worked out at 106%.
Under `CCNC(=O)Nc1cc(-c2nc(C(F)(F)F)cs2)c(-c2cc3c(=O)c(C(=O)O)cn(C[C@@H]4CCCN4CC)c3cc2OCCN(C)C)cn1` [Example 25, 7-(2-(dimethylamino)ethoxy)-1-(((S)-1-ethylpyrrolidin-2-yl)methyl)-6-(6-(3-ethylureido)-4-(4-(trifluoromethyl)thiazol-2-yl)pyridin-3-yl)-4-oxo-1,4-dihydroquinoline-3-carboxylic acid] stands 98%; under `CCNC(=O)Nc1cc(-c2nc(C(F)(F)F)cs2)c(-c2ccc3c(c2)c(=O)c(C(=O)O)cn3[C@H](COP(=O)(O)O)CC(C)C)cn1` [Example 7, (5)-6-(6-(3-ethylureido)-4-(4-(trifluoromethyl)thiazol-2-yl)pyridin-3-yl)-1-(4-methyl-1-(phosphonooxy)pentan-2-yl)-4-oxo-1,4-dihydroquinoline-3-carboxylic acid], 111%; under `CCNC(=O)Nc1cc(-c2nc(C(F)(F)F)cs2)c(-c2ccc3c(=O)c(C(=O)NCCCOP(=O)(O)O)cn(CCC(C)C)c3c2)cn1` [Example 16, 3-({[7-{6-[(ethylcarbamoyl)amino]-4-[4-(trifluoromethyl)-1,3-thiazol-2-yl]pyridin-3-yl}-1-(3-methylbutyl)-4-oxo-1,4-dihydroquinolin-3-yl]carbonyl}amino)propyl dihydrogen phosphate], 100%.
The same measure for `CCNC(=O)Nc1cc(-c2nc(C(F)(F)F)cs2)c(-c2ccc3c(c2)c(=O)c(C(=O)N(C)C)cn3CCN2CCN(C)CC2)cn1` [Example 30, 6-{6-[(Ethylcarbamoyl)amino]-4-[4-(trifluoromethyl)-1,3-thiazol-2-yl]pyridin-3-yl}-N,N-dimethyl-1-[2-(4-methylpiperazin-1-yl)ethyl]-4-oxo-1,4-dihydroquinoline-3-carboxamide]: 98%; for `CCNC(=O)Nc1cc(-c2nc(C(F)(F)F)cs2)c(-c2ccc3c(c2)c(=O)c(C(=O)O)cn3[C@H](CC)COP(=O)(O)O)cn1` [Example 6, (R)-6-(6-(3-ethylureido)-4-(4-(trifluoromethyl)thiazol-2-yl)pyridin-3-yl)-4-oxo-1-(1-(phosphonooxy)butan-2-yl)-1,4-dihydroquinoline-3-carboxylic acid]: 96%; for `CCNC(=O)Nc1cc(-c2nc(C(F)(F)F)cs2)c(-c2ccc3c(c2)c(=O)c(C(=O)O)cn3CCN)cn1` [Example 34, 1-(2-Aminoethyl)-6-{6-[(ethylcarbamoyl)amino]-4-[4-(trifluoromethyl)-1,3-thiazol-2-yl]pyridin-3-yl}-4-oxo-1,4-dihydroquinoline-3-carboxylic acid]: 112%.
The same measure for `CCNC(=O)Nc1cc(-c2nc(C(F)(F)F)cs2)c(-c2ccc3c(=O)c(C(=O)NCCCOP(=O)(O)O)cn(Cc4noc(C)n4)c3c2)cn1` [Example 13, 3-{[(7-{6[(ethylcarbamoyl)amino]-4-[4-(trifluoromethyl)-1,3-thiazol-2-yl]pyridin-3-yl}-1-[(5-methyl-1,2,4-oxadiazol-3-yl)methyl]-4-oxo-1,4-dihydroquinolin-3-yl)carbonyl]amino}propyl dihydrogen phosphate]: 99%; for `CCNC(=O)Nc1cc(-c2nc([C@H](N)C(C)C)cs2)c(-c2ccc3c(c2)c(=O)c(C(=O)O)cn3[C@H](CO)C(C)(C)C)cn1` [Example 53, 6-(4-(4-((R)-1-amino-2-methylpropyl)thiazol-2-yl)-6-(3-ethylureido)pyridin-3-yl)-1-((S)-1-hydroxy-3,3-dimethylbutan-2-yl)-4-oxo-1,4-dihydroquinoline-3-carboxylic acid]: 46%.
Regarding `CCNC(=O)Nc1cc(-c2nc(-c3ccccc3)cs2)c(-c2cc3c(=O)c(C(=O)O)cn(CCN(C)C)c3cc2OCCN(C)C)cn1` [Example 24, 7-(2-(dimethylamino)ethoxy)-1-(2-(dimethylamino)ethyl)-6-(6-(3-ethylureido)-4-(4-phenylthiazol-2-yl)pyridin-3-yl)-4-oxo-1,4-dihydroquinoline-3-carboxylic acid], the inhibition at 1 µM worked out at 107%.
Under `CCNC(=O)Nc1cc(-c2nc(C(F)(F)F)cs2)c(-c2cc3c(=O)c(C(=O)O)cn(CCN(C)C)c3cc2OCCN(C)C)cn1` [Example 26, 7-(2-(dimethylamino)ethoxy)-1-(2-(dimethylamino)ethyl)-6-(6-(3-ethylureido)-4-(4-(trifluoromethyl)thiazol-2-yl)pyridin-3-yl)-4-oxo-1,4-dihydroquinoline-3-carboxylic acid] stands 108%; under `CCNC(=O)Nc1cc(-c2nc(C(F)(F)F)cs2)c(-c2ccc3c(c2)c(=O)c(C(=O)NCCCOP(=O)(O)O)cn3C(COC)COC)cn1` [Example 10, 3-(1-(1,3-dimethoxypropan-2-y1)-6-(6-(3-ethylureido)-4-(4-(trifluoromethyl)thiazol-2-yl)pyridin-3-yl)-4-oxo-1,4-dihydroquinoline-3-carboxamido)propyl dihydrogen phosphate hydrochloride], 12%.
The same measure for `CCNC(=O)Nc1cc(-c2nc(C(F)(F)F)cs2)c(-c2ccc3c(c2)c(=O)c(C(=O)OCCOP(=O)(O)O)cn3C2CC2)cn1` [Example 18, 2-(phosphonooxy)ethyl 1-cyclopropyl-6-(6-(3-ethylureido)-4-(4-(trifluoromethyl)thiazol-2-yl)pyridin-3-yl)-4-oxo-1,4-dihydroquinoline-3-carboxylate hydrochloride]: 104%; for `CCNC(=O)Nc1cc(-c2nc(C(F)(F)F)cs2)c(-c2cc3c(=O)c(C(=O)O)cn(CC)c3cc2N2CCN(C)CC2)cn1` [Example 22, 1-ethyl-6-(6-(3-ethylureido)-4-(4-(trifluoromethyl)thiazol-2-yl)pyridin-3-yl)-7-(4-methylpiperazin-1-yl)-4-oxo-1,4-dihydroquinoline-3-carboxylic acid]: 103%.
The same measure for `CCNC(=O)Nc1cc(-c2nc(C(F)(F)F)cs2)c(-c2cc3c(=O)c(C(=O)O)cn([C@H](CO)C(C)(C)C)c3cc2F)cn1` [Example 27, 6-(6-(3-ethylureido)-4-(4-(trifluoromethyl)thiazol-2-yl)pyridin-3-yl)-7-fluoro-1-((S)-1-hydroxy-3,3-dimethylbutan-2-yl)-4-oxo-1,4-dihydroquinoline-3-carboxylic acid]: 125%; for `CCNC(=O)Nc1cc(-c2nc(C(F)(F)F)cs2)c(-c2ccc3c(c2)c(=O)c(C(=O)O)cn3[C@@H](CC)COP(=O)(O)O)cn1` [Example 5, (S)-6-(6-(3-ethylureido)-4-(4-(trifluoromethyl)thiazol-2-yl)pyridin-3-yl)-4-oxo-1-(1-(phosphonooxy)butan-2-yl)-1,4-dihydroquinoline-3-carboxylic acid]: 120%.
As to `CCNC(=O)Nc1cc(-c2nc(C(F)(F)F)cs2)c(-c2ccc3c(c2)c(=O)c(C(=O)OCc2oc(=O)oc2C)cn3C(COC)COC)cn1` [Example 40, (5-methyl-2-oxo-1,3-dioxo1-4-yl)methyl 1-(1,3-dimethoxypropan-2-yl)-6-(6-(3-ethylureido)-4-(4-(trifluoromethyl)thiazol-2-yl)pyridin-3-yl)-4-oxo-1,4-dihydroquinoline-3-carboxylate], the inhibition at 1 µM was 97%.
Consider `CCCn1cc(C(=O)NCCCOP(=O)(O)O)c(=O)c2ccc(-c3cnc(NC(=O)NCC)cc3-c3nc(C(F)(F)F)cs3)cc21` [Example 17, 3-{[(7-{6-[(ethylcarbamoyl)amino]-4-[4-(trifluoromethyl)-1,3-thiazol-2-yl]pyridin-3-yl}-4-oxo-1-propyl-1,4-dihydroquinolin-3-yl)carbonyl]amino}propyl dihydrogen phosphate], for which the inhibition at 1 µM was 100%.
The same measure for `CCNC(=O)Nc1cc(-c2nc(C(F)(F)F)cs2)c(-c2ccc3c(c2)c(=O)c(C(=O)OCCOP(=O)(O)O)cn3C(COC)COC)cn1` [Example 19, 2-(phosphonooxy)ethyl 1-(1,3-dimethoxypropan-2-yl)-6-(6-(3-ethylureido)-4-(4-(trifluoromethyl)thiazol-2-yl)pyridin-3-yl)-4-oxo-1,4-dihydroquinoline-3-carboxylate]: 110%; for `CCNC(=O)Nc1cc(-c2nc(C(F)(F)F)cs2)c(-c2ccc3c(c2)c(=O)c(C(=O)OCOC(=O)C(C)(C)C)cn3C(COC)COC)cn1` [Example 39, Pivaloyloxymethyl 1-(1,3-dimethoxypropan-2-yl)-6-(6-(3-ethylureido)-4-(4-(trifluoromethyl)thiazol-2-yl)pyridin-3-yl)-4-oxo-1,4-dihydroquinoline-3-carboxylate]: 102%; for `CCNC(=O)Nc1cc(-c2nc(C(F)(F)F)cs2)c(-c2ccc3c(c2)c(=O)c(C(=O)OCCOC(=O)CC)cn3C(COC)COC)cn1` [Example 42, 2-(propionyloxy)ethyl 1-(1,3-dimethoxypropan-2-yl)-6-(6-(3-ethylureido)-4-(4-(trifluoromethyl)thiazol-2-yl)pyridin-3-yl)-4-oxo-1,4-dihydroquinoline-3-carboxylate]: 104%.

By inhibition is commonly meant the relative decrease from the control value, in per cent.
